Reference: PubChem BioAssay (NCI)
“And” between values parts separate entries of the source, which are not always exact repeats. Equal values may be shown once.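 Tested at 5 concentrations; 48 h exposure; 96-well plates; endpoints linearly interpolated, else capped at highest concentration. Abbreviation: GI50, concentration required for 50% inhibition of growth. The concentration for full growth arrest is given as TGI.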

Columns and labels:
Assay in all cases: NCI anticancer screen, dose series, 48 h
A498 renal = tested on: A498 renal
HL-60(TB) leukemia = tested on: HL-60(TB) leukemia
K-562 leukemia = tested on: K-562 leukemia
NCI-H23 lung = tested on: NCI-H23 lung
NCI-H460 lung = tested on: NCI-H460 lung
OVCAR-8 ovarian = tested on: OVCAR-8 ovarian
RXF 393 renal = tested on: RXF 393 renal
U251 CNS = tested on: U251 CNS

SMILES | GI50 (A498 renal) | TGI (A498 renal) | GI50 (HL-60(TB) leukemia) | TGI (HL-60(TB) leukemia) | GI50 (K-562 leukemia) | TGI (K-562 leukemia) | GI50 (NCI-H23 lung) | TGI (NCI-H23 lung) | GI50 (NCI-H460 lung) [µM] | TGI (NCI-H460 lung) [µM] | GI50 (OVCAR-8 ovarian) | TGI (OVCAR-8 ovarian) | GI50 (RXF 393 renal) | TGI (RXF 393 renal) | GI50 (U251 CNS) | TGI (U251 CNS)
Cc1cc(C)c2c(c1)N(C)c1ncnc(-n3cnc4cc(C)ccc43)c1CC2C (stereo not given) | 1.41 µM | 6.21 µM | 2.46 µM | 9.36 µM | 1.5 µM | > 100 µM | 4.87 µM | > 100 µM | 3.4 | 11.4 | 3.79 µM | 20 µM | 2.66 µM | 9.06 µM | 3.55 µM | 19.4 µM
O=C(CN1CCN(C(=O)c2ccco2)CC1)Nc1ccc(Cl)cc1C(=O)c1ccccc1Cl | 6.8 µM | 22.9 µM | 1.31 µM | 2.95 µM | 0.691 µM | 10.5 µM | 10.4 µM | 62.2 µM | 13.9 | 29 | 11.5 µM | 53.8 µM | 3.85 µM | 18 µM | 8 µM | 23.6 µM
NC(=O)c1csc(-c2ccc(CO)o2)n1 | – | > 100 µM | – | > 100 µM | – | > 100 µM | – | > 100 µM | – | > 100 | – | > 100 µM | – | > 100 µM | – | > 100 µM
Cc1cnc(-c2ccc(-c3ccc(NC(=O)Nc4c(F)cc(F)cc4F)cc3F)c3c2C(=O)NC3)[nH]1 | 6.48 µM and 2.13 µM | 24.3 µM and 14.9 µM | 1.1 µM and 0.946 µM | 12.9 µM and 16.9 µM | 0.329 µM and 0.66 µM | 2.96 µM and 11.5 µM | 0.286 µM and 0.545 µM | 5.5 µM and 6.52 µM | 0.989 | 2.75 | 1.25 µM and 2.08 µM | 3.77 µM and 9.45 µM | 1.15 µM and 1.32 µM | 3.6 µM and 5.58 µM | 0.433 µM and 0.926 µM | 1.85 µM and 2.51 µM
O=C1c2ccc3c4c(ccc(c24)C(=O)N1CCNCc1ccccc1)C(=O)N(CCNCc1ccccc1)C3=O | 15.6 µM | 37.8 µM | 2.09 µM | 4.91 µM | 0.365 µM | > 100 µM | 1.86 µM | 3.89 µM | 1.8 | 4.26 | 1.2 µM | 4.26 µM | 1.41 µM | 4.21 µM | 2.02 µM | 5.42 µM
C=CC(=O)N1CCC[C@@H](n2nc(-c3ccc(Oc4ccccc4)cc3)c3c(N)ncnc32)C1 | 0.46 µM | > 5.51 µM | > 5.51 µM | > 10 µM | > 10 µM | > 10 µM | > 10 µM | > 10 µM | > 10 | > 10 | > 8.16 µM | > 10 µM | > 5.25 µM | > 10 µM | 9.81 µM | > 10 µM
COC(=O)c1c2c(c(C)[n+]([O-])c1C)C(=O)C(NCc1ccc(O)cc1)=CC2=O | 1.31 µM | 2.92 µM | 2.46 µM | 5.69 µM | 1.63 µM | 7.39 µM | 1.43 µM | 3.5 µM | 1.58 | 3.35 | 1.08 µM | 6.47 µM | 1.5 µM | 2.98 µM | 1.77 µM | 5.26 µM
Cn1c(=O)c(Oc2ccc(F)cc2F)cc2cnc(NCC(C)(C)O)nc21 | > 25 µM | > 25 µM | > 25 µM | > 25 µM | > 25 µM | > 25 µM | > 25 µM | > 25 µM | > 25 | > 25 | > 25 µM | > 25 µM | > 25 µM | > 25 µM | > 25 µM | > 25 µM
CN(C)C1CN(C(=O)c2cc(-c3ccc4ncnc(N5CCc6cc(F)c(Cl)cc65)c4c3)cnc2N)C1 | 0.254 µM | 0.832 µM | 0.151 µM | 1.49 µM | 0.86 µM | > 100 µM | 1.25 µM | > 100 µM | 0.574 | > 100 | 0.819 µM | > 100 µM | 0.369 µM | 2.34 µM | 1.34 µM | > 100 µM
COc1cc2c(cc1OCCCN1CCN(C(=S)SCCC(C#N)(c3ccccc3)c3ccccc3)CC1)N=C[C@@H]1CCCN1C2=O | 1 µM | 2.32 µM | 0.876 µM | – | 0.573 µM | – | 1.07 µM | 2.7 µM | 0.891 | – | 1.31 µM | > 48.3 µM | 0.192 µM | 0.36 µM | 0.405 µM | 1.43 µM
CCOc1ccc2c(c1)C(=O)c1c-2n(CCCN=[N+]=[N-])c(=O)c2cc([N+](=O)[O-])ccc12 | 18.5 µM | 58.7 µM | 28.5 µM | > 100 µM | 17.2 µM | > 100 µM | 0.997 µM | > 100 µM | 0.284 | 10.7 | 11.9 µM | > 100 µM | 28 µM | > 100 µM | 3.57 µM | 37.7 µM
